The results in this text go back to US8309718B2, “4-pyrazolyl-N-arylpyrimidin-2-amines and 4-pyrazolyl-N-heteroarylpyrimidin-2-amines as janus kinase inhibitors” (Incyte Corporation, priority 2007, dated 2012).

For this experiment, the target named is T1, human JAK2 (Homo sapiens, UniProt O60674).
T1 construct: JAK2 (a.a. 828-1132); His tag (N); made in house; host or cells: insect cells (baculovirus)
The experiment can be described thus: In vitro JAK kinase assay (HTRF, phosphorylation of biotinylated peptide). The class given is biochemical. The conditions noted are these: catalytic domain a.a. 828-1132, 30 μM ATP, 500 nM peptide, room temperature 1 hr; read-out: JAK-2 IC50. Here is the method: Compounds herein were tested for inhibitory activity of JAK targets according to the following in vitro assay described in Park et al, Analytical Biochemistry 1999, 269, 94-104. The catalytic domains of human JAK1 (a.a. 837-1142), JAK2 (a.a. 828-1132) and JAK3 (a.a. 781-1124) with an N-terminal His tag were expressed using baculovirus in insect cells and purified. The catalytic activity of JAK1, JAK2 or JAK3 was assayed by measuring the phosphorylation of a biotinylated peptide. The phosphorylated peptide was detected by homogenous time resolved fluorescence (HTRF). IC50s of compounds were measured for each kinase in the reactions that contain the enzyme, ATP and 500 nM peptide in 50 mM Tris (pH 7.8) buffer with 100 mM NaCl, 5 mM DTT, and 0.1 mg/mL (0.01%) BSA. The ATP concentration in the reactions was 90 μM for JAK1, 30 μM for Jak2 and 3 μM for JAK3. Reactions were carried out at room temperature for 1 hr and then stopped with 20 μL 45 mM EDTA, 300 nM SA-APC, 6 nM Eu-Py20 in assay buffer (Perkin Elmer, Boston, Mass.). Binding to the Europium labeled antibody took place for 40 minutes and HTRF signal was measured on a Fusion plate reader (Perkin Elmer, Boston, Mass.). Certain of the above compounds were tested according to this assay.

T1 sequence (O60674 828-1132): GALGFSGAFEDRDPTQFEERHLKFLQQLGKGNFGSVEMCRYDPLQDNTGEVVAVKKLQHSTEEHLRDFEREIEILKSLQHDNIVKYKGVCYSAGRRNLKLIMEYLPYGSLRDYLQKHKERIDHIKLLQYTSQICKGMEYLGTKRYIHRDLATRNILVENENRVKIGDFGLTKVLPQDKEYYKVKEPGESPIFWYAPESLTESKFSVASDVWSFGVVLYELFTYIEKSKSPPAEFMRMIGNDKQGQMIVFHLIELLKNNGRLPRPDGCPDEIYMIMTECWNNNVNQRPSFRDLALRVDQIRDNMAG

With `COCC(C)NC(=O)c1cccc(Nc2nccc(-c3cnn(C(CC#N)C4CCCC4)c3)n2)c1` (mixture of isomers) [Example 113, 3-(4-(1-(2-cyano-1-cyclopentylethyl)-1H-pyrazol-4-yl)pyrimidin-2-ylamino)-N-(1-methoxypropan-2-yl)benzamide], the IC50 is less than 100 nM. Consider `N#CCC(C1CCCC1)n1cc(-c2ccnc(Nc3ccc(NC(=O)c4ccno4)cc3)n2)cn1` (racemic) [Example 188, N-(4-(4-(1-(2-cyano-1-cyclopentylethyl)-1H-pyrazol-4-yl)pyrimidin-2-ylamino)phenyl)isoxazole-5-carboxamide], for which the half-inhibitory concentration (IC50) was less than 100 nM. Turning to `N#CCC(CC1CCN(C(=O)c2ccc(F)cc2F)CC1)n1cc(-c2ccnc(Nc3ccc(N4CCNCC4)cc3)n2)cn1` (racemic) [Example 2, 4-(1-(2,4-difluorobenzoyl)piperidin-4-yl)-3-(4-(2-(4-(piperazin-1-yl)phenylamino)pyrimidin-4-yl)-1H-pyrazol-1-yl)butanenitrile], the IC50 is less than 100 nM.

Turning to `N#CCC(C1CCOCC1)n1cc(-c2ccnc(Nc3ccc(C(=O)N4CCOCC4)cc3)n2)cn1` (racemic) [Example 311, 3-[4-(2-{[4-(morpholin-4-ylcarbonyl)phenyl]amino}pyrimidin-4-yl)-1H-pyrazol-1-yl]-3-(tetrahydro-2H-pyran-4-yl)propanenitrile], the IC50 is less than 100 nM.

In the case of `N#CCC1(n2cc(-c3ccnc(Nc4cccc(-c5cnco5)c4)n3)cn2)CCN(C(=O)c2ccno2)CC1` (racemic) [Example 13, 2-(1-(isoxazole-5-carbonyl)-4-(4-(2-(3-(oxazol-5-yl)phenylamino)pyrimidin-4-yl)-1H-pyrazol-1-yl)piperidin-4-yl)acetonitrile], the IC50 is less than 100 nM. For the compound `N#CCC(C1CCCC1)n1cc(-c2ccnc(Nc3ccc(C(=O)N4CCC5(CC4)CNC(=O)C5)cc3)n2)cn1` (racemic) [Example 228, 3-cyclopentyl-3-(4-(2-(4-(3-oxo-2,8-diazaspiro[4.5]decane-8-carbonyl)phenylamino)pyrimidin-4-yl)-1H-pyrazol-1-yl)propanenitrile], the IC50 is less than 100 nM. Turning to `Cc1cnc(Nc2ccc([N+](=O)[O-])cc2)nc1-c1cnn(C(CC#N)C2CCCC2)c1` (racemic) [Example 82, 3-cyclopentyl-3-(4-(5-methyl-2-(4-nitrophenylamino)pyrimidin-4-yl)-1H-pyrazol-1-yl)propanenitrile], the IC50 was less than 100 nM. Take `N#CCC1(n2cc(-c3ccnc(Nc4ccc(N5CCCC5=O)cc4)n3)cn2)CC(C#N)C1` (single isomer, unassigned) [Example 340, 3-(cyanomethyl)-3-[4-(2-{[4-(2-oxopyrrolidin-1-yl)phenyl]amino}pyrimidin-4-yl)-1H-pyrazol-1-yl]cyclobutanecarbonitrile]: the IC50 is less than 100 nM.

For the compound `Cc1nccc(-c2cccc(Nc3nccc(-c4cnn(C5(CC#N)CN(S(=O)(=O)C6CC6)C5)c4)n3)c2)n1` [Example 20, 2-(1-(cyclopropylsulfonyl)-3-(4-(2-(3-(2-methylpyrimidin-4-yl)phenylamino)pyrimidin-4-yl)-1H-pyrazol-1-yl)azetidin-3-yl)acetonitrile], the IC50 was less than 100 nM. For the compound `Cc1cnc(Nc2ccccc2)nc1-c1cnn(C(CC#N)CC2CCN(S(=O)(=O)c3ccn(C)n3)CC2)c1` (racemic) [Example 65, 4-(1-(1-methyl-1H-pyrazol-3-ylsulfonyl)piperidin-4-yl)-3-(4-(5-methyl-2-(phenylamino)pyrimidin-4-yl)-1H-pyrazol-1-yl)butanenitrile], the IC50 is less than 100 nM. The result for `CN1CCN(C(=O)c2ccc(Nc3nccc(-c4cnn(C(CC#N)C5CCCC5)c4)n3)cc2)CC1` (racemic) [Example 120, 3-cyclopentyl-3-(4-(2-(4-(4-methylpiperazine-1-carbonyl)phenylamino)pyrimidin-4-yl)-1H-pyrazol-1-yl)propanenitrile] reads less than 100 nM; that for `N#CCC(C1CCCC1)n1cc(-c2ccnc(Nc3ccc(NC(=O)CNCC4CCOCC4)cc3)n2)cn1` (racemic) [Example 208, N-(4-(4-(1-(2-cyano-1-cyclopentylethyl)-1H-pyrazol-4-yl)pyrimidin-2-ylamino)phenyl)-2-((tetrahydro-2H-pyran-4-yl)methylamino)acetamide], less than 100 nM; that for `N#CCC1(n2cc(-c3ccnc(Nc4ccc(-n5cccn5)cc4)n3)cn2)CC(C#N)C1` (single isomer, unassigned) [Example 341, 3-(cyanomethyl)-3-[4-(2-{[4-(1H-pyrazol-1-yl)phenyl]amino}pyrimidin-4-yl)-1H-pyrazol-1-yl]cyclobutanecarbonitrile], less than 100 nM.

Consider `N#CCC1(n2cc(-c3ccnc(Nc4ccc(C(=O)N5CC[C@@H](C#N)C5)cc4)n3)cn2)CC(C#N)C1` (stereo partly drawn) [Example 297, (R)-1-(4-(4-(1-(3-cyano-1-(cyanomethyl)cyclobutyl)-1H-pyrazol-4-yl)pyrimidin-2-ylamino)benzoyl)pyrrolidine-3-carbonitrile], for which the IC50 is less than 100 nM. Take `N#CCC1(n2cc(-c3ccnc(Nc4ccc(N5CCOCC5)cc4)n3)cn2)CC(C#N)C1` (single isomer, unassigned) [Example 248, 3-(cyanomethyl)-3-(4-(2-(4-morpholinophenylamino)pyrimidin-4-yl)-1H-pyrazol-1-yl)cyclobutanecarbonitrile]: the IC50 is less than 100 nM.

Turning to `COc1cnc(Nc2cccnc2)nc1-c1cnn(C(CC#N)CC2CCN(C(=O)c3ccc(F)cc3F)CC2)c1` (racemic) [Example 347, 4-[1-(2,4-difluorobenzoyl)piperidin-4-yl]-3-{4-[5-methoxy-2-(pyridin-3-ylamino)pyrimidin-4-yl]-1H-pyrazol-1-yl}butanenitrile], the IC50 is less than 100 nM.

As for `CC(=O)Nc1ccc(Nc2ncc(C)c(-c3cnn(C(CC#N)CC4CCN(C(=O)c5ccc(F)cc5F)CC4)c3)n2)cc1` (racemic) [Example 69, N-(4-(4-(1-(1-cyano-3-(1-(2,4-difluorobenzoyl)piperidin-4-yl)propan-2-yl)-1H-pyrazol-4-yl)-5-methylpyrimidin-2-ylamino)phenyl)acetamide], the IC50 was less than 100 nM. The result for `N#CCC(C1CC1)n1cc(-c2ccnc(Nc3ccc(N4CCOCC4=O)cc3)n2)cn1` (racemic) [Example 180, 3-cyclopropyl-3-(4-(2-(4-(3-oxomorpholino)phenylamino)pyrimidin-4-yl)-1H-pyrazol-1-yl)propanenitrile] reads less than 100 nM; that for `C[C@@H]1CN(S(=O)(=O)Nc2ccc(Nc3nccc(-c4cnn(C(CC#N)C5CCCC5)c4)n3)cc2)C[C@H](C)O1` (mixture of isomers) [Example 182, N-(4-(4-(1-(2-cyano-1-cyclopentylethyl)-1H-pyrazol-4-yl)pyrimidin-2-ylamino)phenyl)-(cis)-2,6-dimethylmorpholine-4-sulfonamide], less than 100 nM. In the case of `N#CCC(C1CCCC1)n1cc(-c2ccnc(Nc3cccc(NC(=O)CNCC4CC4)c3)n2)cn1` (racemic) [Example 241, N-(3-(4-(1-(2-cyano-1-cyclopentylethyl)-1H-pyrazol-4-yl)pyrimidin-2-ylamino)phenyl)-2-(cyclopropylmethylamino)acetamide], the concentration for half-maximal inhibition (IC50) is less than 100 nM. As for `N#CCC(C1CCCC1)n1cc(-c2ccnc(Nc3cccc(N)c3)n2)cn1` (racemic) [Example 108, 3-(4-(2-(3-aminophenylamino)pyrimidin-4-yl)-1H-pyrazol-1-yl)-3-cyclopentylpropanenitrile], the IC50 was less than 100 nM. `CCS(=O)(=O)N1CC(CC#N)(n2cc(-c3ccnc(Nc4ccc(C(=O)N5CC[C@H](F)C5)cc4)n3)cn2)C1` [Example 283, (S)-2-(1-(ethylsulfonyl)-3-(4-(2-(4-(3-fluoropyrrolidine-1-carbonyl)phenylamino)pyrimidin-4-yl)-1H-pyrazol-1-yl)azetidin-3-yl)acetonitrile]: the IC50 is less than 100 nM. `CC(=O)Nc1ccc(Nc2nccc(-c3cnn(C4(CC#N)CN(S(=O)(=O)C5CC5)C4)c3)n2)cc1` [Example 19, N-(4-(4-(1-(3-(cyanomethyl)-1-(cyclopropylsulfonyl)azetidin-3-yl)-1H-pyrazol-4-yl)pyrimidin-2-ylamino)phenyl)acetamide]: the IC50 is less than 100 nM.

Regarding `N#CCC(C1CC1)n1cc(-c2ccnc(Nc3ccc(-n4cccn4)cc3)n2)cn1` (racemic) [Example 178, 3-(4-(2-(4-(1H-pyrazol-1-yl)phenylamino)pyrimidin-4-yl)-1H-pyrazol-1-yl)-3-cyclopropylpropanenitrile], the IC50 is less than 100 nM. `N#CCC(C1CCCC1)n1cc(-c2ccnc(Nc3cccc(C(=O)N4CCN(c5ccccc5)CC4)c3)n2)cn1` (racemic) [Example 168, 3-cyclopentyl-3-(4-(2-(3-(4-phenylpiperazine-1-carbonyl)phenylamino)pyrimidin-4-yl)-1H-pyrazol-1-yl)propanenitrile]: the IC50 was less than 100 nM.

Turning to `CN1CCN(CC(=O)Nc2cccc(Nc3nccc(-c4cnn(C(CC#N)C5CCCC5)c4)n3)c2)CC1` (racemic) [Example 236, N-(3-(4-(1-(2-cyano-1-cyclopentylethyl)-1H-pyrazol-4-yl)pyrimidin-2-ylamino)phenyl)-2-(4-methylpiperazin-1-yl)acetamide], the IC50 is less than 100 nM.

Broadly, the IC50 is the concentration needed to halve the response being measured.
